In patent publication US20080311126A1, “Antisense Oligonucleotides Directed to Ribonucleotide Reducatase R2 and Uses Thereof in Combination Therapies for the Treatment of Cancer” (Genesense Technologies, Inc, priority 2004, published 2008):
Entries after “also recorded” stand apart in the source; their conditions may differ.

Experiments:
[1] = tested on: Caki-1 human renal cancer cells; assay: Caki-1 renal tumour xenograft in SCID mice, SEQ ID NO:1 and chemotherapeutics; format: in vivo
Procedure: Caki-1 human renal cancer cells (1×10^7 cells in […] of PBS) were subcutanteously injected into the right flank of 6-7 weeks old female SCID mice. After the size of tumour reached an approximate volume of 200 mm^3, 7 days post tumour cell injection, SEQ ID NO:1 was administered by bolus infusion into the tail vein every other day at 10 mg/kg. Control animals received saline alone for the same period. The antitumour effect of SEQ ID NO:1 was further compared to that of two chemotherapeutic agents: 5-FU and vinblastine. 5-FU was administered intraperitoneally at days 7-13, 21-27 and 35-36 with a dose of 13 mg/kg/day, while vinblastin was administered intraperitoneally at days 7, 14, 21, 28 and 35 at a dose of 0.6 mg/kg/week. Antitumour effects of each of these compounds were further compared to those of SEQ ID NO:1 in combination with 5-FU or with vinblastin. The two chemotherapeutic agents were applied as described above, one hour after the treatments with SEQ ID NO:1 when combination treatments occurred on the same day. All treatments were stopped at day 36. A day after the last treatment, tumours were excised from the animals and their weights were measured.

[2] = tested on: DU145 human prostatic cancer cells; assay: DU145 prostatic tumour xenograft in SCID mice; format: in vivo
Procedure: In both experiments, DU145 human prostatic cancer cells (1×10^7 cells in 100 μl of PBS) were subcutaneously injected into the right flank of 6-7 weeks old male SCID mice. After the size of tumour reached an approximate volume of 50 mm^3, 13 FIG. 15A) or 11 (FIG. 15B) days post tumour cell injection, SEQ ID NO:1 was administered by bolus infusion into the tail vein every other day at 10 mg/kg 15 times (FIG. 15A) or 14 times (FIG. 15B), respectively. Control animals received saline alone for the same period. Antitumour effect of SEQ ID NO:1 was further compared to that of mitoxantrone (Novantrone®) alone or in combination. Mitoxantrone was administered intravenously once at the beginning of the treatments at a dose of 2 mg/kg (FIG. 15A) or once a week for four weeks at a reduced dose of 0.8 mg/kg (FIG. 15B). All treatments were stopped at day 42 (FIG. 15A) or 38 (FIG. 15B); respectively. A day after the last treatment, tumours were excised from the animals and their weights were measured.

[3] = tested on: Human taxol-resistant promyelocytic leukaemia cells (HL-60); assay: HL-60 taxol-resistant promyelocytic leukaemia xenograft in SCID mice; format: in vivo
Procedure: Human taxol-resistant promyelocytic leukaemia cells (HL-60) (7×10^6 cells in 100 μl of PBS) were injected into the right flank of 6-7 weeks old female SCID mice. After the size of tumour reached an approximate volume of 100 mm^3, 10 days post tumour cell injection, SEQ ID NO:1 was administered by bolus infusion into the tail vein every other day at 10 mg/kg. Control animals received saline alone for the same period. The anti-tumour effect of SEQ ID NO:1 was further compared to that of taxol. Taxol was administered i.p. once a week at a dose of 10 mg/kg. Anti-tumour activity was estimated by the inhibition of tumour volume, which was measured with caliper. Each point represents mean tumour volume calculated from 10 animals per experimental group. In addition animals were sacrificed and tumour weights taken at the end of the study.

[4] = tested on: LS513 multi-drug resistant colon carcinoma cells; assay: LS513 multi-drug resistant colon carcinoma xenograft in SCID mice; format: in vivo, human
Procedure: LSS13 multi-drug resistant colon carcinoma cells (1×10^7 cells in 100 μl of PBS) were subcutaneously injected into the right flank of 6-7 weeks old female SCID mice. After the size of tumour reached an approximate volume of […], 8 days post tumour cell injection, SEQ ID NO:1 was administered by bolus infusion into the tail vein every other day at 10 mg/kg. Control animals received saline alone for the same period. Antitumour effect of SEQ ID NO:1 was further compared to that of CPT-11 alone or in combination. CPT-11 was administered i.p. for 5 days at a dose of 20 mg/kg/day. Antitumour activities were estimated by the inhibition of tumour volume, which was measured with caliper. Each point represents mean tumour volume calculated from 10 animals per experimental group. Tumour weights were measured after animals were sacrificed at the end of the treatment. These cells are not resistant to CPT-11 which was used as a positive control.

[5] = tested on: Human Colon Adenocarcinoma; assay: Tumour growth assay, human colon adenocarcinoma in CD-1 nude mice; format: in vivo
Human Melanoma = assay: Tumour growth assay, human melanoma in mice; format: in vivo
[6] = tested on: Human Breast Adenocarcinoma; assay: Tumour growth assay, human breast adenocarcinoma in mice; format: in vivo
[7] = tested on: Human Pancreatic Adenocarcinoma; assay: Tumour growth assay, human pancreatic adenocarcinoma in mice; format: in vivo
[8] = tested on: Human Ovary Adenocarcinoma; assay: Tumour growth assay, human ovary adenocarcinoma in Balb/c Nu-Nu mice; format: in vivo
Human Lung Carcinoma = assay: Tumour growth assay, human lung carcinoma in CD-1 Nude mice; format: in vivo
Burkitt's Lymphoma = assay: Survival assay, Burkitt's lymphoma in mice; format: in vivo, human
Procedure: For the study of the effect of the compositions on leukaemias, the animals are grafted with a particular number of cells, and the anti-tumour activity is determined by the increase in the survival time of the treated mice relative to the controls.

Sequence: GGCTAAATCGCTCCACCAAG (chemistry not given here) [SEQ ID NO: 1, antisense oligonucleotide that hybridizes to the coding region of human ribonucleotide reductase R2 mRNA]
- Tumour weight as % of saline control ([1]; Caki (renal), Mouse CD-1): 3.3%
- antitumour effect (tumour weight) ([1]; SEQ ID NO:1 10 mg/kg every other day i.v., 5-FU 13 mg/kg/day i.p., vinblastin 0.6 mg/kg/week i.p.): significant delay of tumour growth; also recorded: superior to the inhibitory effects observed with each of two chemotherapeutic compounds
- Tumour weight as % of saline control ([2]; DU145 (prostatic), Mouse SCID, second of two value columns (two independent experiments)): 41%
- antitumour effect (tumour weight) ([2]; FIG. 15A, SEQ ID NO:1 10 mg/kg 15 times, mitoxantrone 2 mg/kg once): significant delay of tumour growth
- Tumour weight as % of saline control ([3]; HL-60 (leukemia), Taxol resistance, SCID): 38%
- anti-tumour effect (tumour volume, tumour weight) ([3]; SEQ ID NO:1 10 mg/kg every other day, Taxol 10 mg/kg i.p. weekly): significant reduction of tumour weight
- Tumour weight as % of saline control ([4]; LS513 (colon) multi-drug resistant (CPT-11 sensitive), SCID): 49%
- antitumour effect (tumour volume, tumour weight) ([4]; SEQ ID NO:1 10 mg/kg every other day, CPT-11 20 mg/kg/day i.p. 5 days): significant delay of tumour growth; also recorded: as effective as CPT-11
- Inhibition of tumour size ([5]; CD-1 nude mice, Day 18 after tumour implantation): mice by approximately 80% on Day 18
- dose dependence of decrease in tumour weight ([5]; CD-1 nude mice, doses of 1.0 to 6.0 mg/kg): Dose-dependent decrease in tumour
- Inhibition of tumour weight ([5]; Human Colon Adenocarcinoma): approximately 80%
- Inhibition of tumour weight (Human Melanoma): approximately 80%
- Inhibition of tumour weight ([6]; Day 31 after tumour implantation): approximately 80% on Day 31 after
- Inhibition of tumour size ([6]; Human Breast Adenocarcinoma): approximately 80%
- Inhibition of tumour weight ([7]; Human Pancreatic Adenocarcinoma): approximately 65%
- inhibition of tumour growth ([7]; up to 39 days after tumour implantation): Complete inhibition of tumour growth
- Inhibition of tumour size ([8]; Balb/c Nu-Nu mice, Days 19 to 25 after tumour implantation): approximately 35% in Balb/c Nu-Nu
- Inhibition of tumour weight ([8]; Human Ovary Adenocarcinoma): of approximately 50%
- Inhibition of tumour size (Human Lung Carcinoma; CD-1 Nude mice, Days 14 to 19 after tumour implantation): approximately 85% in CD-1 Nude mice
- Inhibition of tumour weight (Human Lung Carcinoma; Human Lung Carcinoma): approximately 70%
- effect of treatment on survival (Burkitt's Lymphoma; first entry): Treatment prolonged survival
- survival of treated mice (Burkitt's Lymphoma; first entry, untreated died by day 23, one treated mouse died at day 69): Treated mice survived beyond day 73
- effect of treatment on survival (Burkitt's Lymphoma; second entry): Treatment prolonged survival
- survival of all treated mice (end of the experimental period) (Burkitt's Lymphoma; second entry, untreated died by day 20): the experimental period (140 days)
